Experiment [1] deals with Eotaxin-3 (CCL26) release. Description: Human Whole Blood Eotaxin-3 Assay (IL-4 stimulated). It counts as cell-based. As to conditions: Homo sapiens; geometric mean across assay runs and compound batches; EC50 provided for test compounds with >80% Emax. The method, boiled down:
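Lithium-heparin human whole blood preincubated 2 h at 37 °C with compounds (4-fold dilutions, triplicate, 0.5% DMSO final). Then stimulated with 400 pM final recombinant human IL-4 for 48 h. Eotaxin-3 in supernatant quantified by MSD immunoassay.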

For the next experiment, the target named is T1, STAT6 (Homo sapiens, UniProt P42226).
T1 construct: These cells express endogenous STAT6; host or cells: HeLa LgBiT clone 4.14 (CRISPR knock-in of HiBiT into the endogenous STAT6 gene)
T1 sequence (P42226 1-847): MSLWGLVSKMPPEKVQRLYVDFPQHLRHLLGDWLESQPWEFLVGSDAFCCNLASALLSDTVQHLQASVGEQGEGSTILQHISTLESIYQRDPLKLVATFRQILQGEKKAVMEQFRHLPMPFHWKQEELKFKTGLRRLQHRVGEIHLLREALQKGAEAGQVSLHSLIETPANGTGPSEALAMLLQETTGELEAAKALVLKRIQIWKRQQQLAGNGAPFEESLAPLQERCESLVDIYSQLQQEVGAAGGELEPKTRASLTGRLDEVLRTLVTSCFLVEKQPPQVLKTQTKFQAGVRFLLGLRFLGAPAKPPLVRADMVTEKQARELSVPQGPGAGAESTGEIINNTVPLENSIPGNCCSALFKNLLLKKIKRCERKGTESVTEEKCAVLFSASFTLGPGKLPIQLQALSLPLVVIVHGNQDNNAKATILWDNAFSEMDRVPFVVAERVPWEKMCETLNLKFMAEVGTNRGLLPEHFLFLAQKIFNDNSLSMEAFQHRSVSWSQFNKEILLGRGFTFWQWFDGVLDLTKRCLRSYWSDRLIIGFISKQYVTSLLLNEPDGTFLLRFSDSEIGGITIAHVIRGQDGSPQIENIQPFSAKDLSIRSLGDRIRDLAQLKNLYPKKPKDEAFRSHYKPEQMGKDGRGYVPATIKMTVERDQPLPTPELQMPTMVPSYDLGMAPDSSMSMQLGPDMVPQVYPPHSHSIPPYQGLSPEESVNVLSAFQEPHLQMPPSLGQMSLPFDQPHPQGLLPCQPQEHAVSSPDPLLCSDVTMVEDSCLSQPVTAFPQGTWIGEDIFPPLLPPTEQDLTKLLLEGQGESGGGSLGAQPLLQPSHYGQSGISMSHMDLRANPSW
The experiment in a line: STAT6 Degrader Assay (HiBiT based, HeLa LgBiT clone 4.14 cells). Format: cell-based. To be noted: geometric mean across assay runs and compound batches; DC50 provided for test compounds with >80% Emax; read-out: STAT6 degradation DC50. The method, boiled down: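 DC50 (nM) comes from NanoBiT luminescence of HiBiT-knock-in STAT6 in HeLa LgBiT clone 4.14 cells, treated 4-24 h at 37° C. Luminescence reflects non-degraded STAT6, with 50 μM terfenadine wells taken as full degradation.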

pEC50: −log10 of the molar value.

As usually defined, the pEC50 is the EC50 on a negative log10 scale, so that one unit is a factor of ten. Read a low pEC50 as a large EC50. By DC50 is commonly meant the midpoint of the concentration-degradation curve.

In experiment [1], `CNc1ccn(-c2ccnc3c2cc([C@H](C)N2CC=C(c4c(F)cc(C(=O)N5CCC(CN6CCN(c7ccc(NC8CCC(=O)NC8=O)cc7F)CC6)CC5)cc4F)CC2)n3C)c(=O)c1` (stereo partly drawn) [Example 2g104, 3-((4-(4-((1-(3,5-difluoro-4-(1-((S)-1-(1-methyl-4-(4-(methylamino)-2-oxopyridin-1(2H)-yl)-1H-pyrrolo[2,3-b]pyridin-2-yl)ethyl)-1,2,3,6-tetrahydropyridin-4-yl)benzo-yl)piperidin-4-yl)methyl)-piperazin-1-yl)-3-fluorophen-yl)amino)piperidine-2,6-dione] gave a pEC50 of 8.05. Moreover, at STAT6, the DC50 came to 3.8 nM.
For `CNc1cc(=O)n(-c2ccnc3c2cc(CN2CCC(c4c(F)cc(C(=O)N5CCn6nc(CN7CCC(c8ccc(NC9CCC(=O)NC9=O)c(OC)c8)CC7)cc6C5)cc4F)CC2)n3C)cc1F` (centres unmarked) [Example 2g122, 3-((4-(1-((5-(3,5-difluoro-4-(1-((4-(5-fluoro-4-(methyl-amino)-2-oxopyridin-1(2H)-yl)-1-methyl-1H-pyrrolo[2,3-b]pyridin-2-yl)methyl)piperi-din-4-yl)benzoyl)-4,5,6,7-tetrahydropyrazolo[1,5-a]pyr-azin-2-yl)methyl)piperidin-4-yl)-2-methoxyphenyl)amino)-piperidine-2,6-dione], in that order: 8.44 and 1.8 nM.
On the same counts, the results for `CNc1ccn(-c2ccnc3c2cc([C@H](C)N2CC=C(c4c(C)cc(C(=O)N5CCn6nc(CN7CCC(c8ccc(N[C@H]9CCC(=O)NC9=O)c(OC)c8)CC7)cc6C5)cc4F)CC2)n3C)c(=O)c1` (single isomer, unassigned) [Example 2g117] are 9.30 and 0.3 nM.
On the same counts, the results for `CNc1ccn(-c2ccnc3c2cc([C@H](C)N2CC=C(c4c(C)cc(C(=O)N5CCn6nc(CN7CCC(c8ccc(N[C@@H]9CCC(=O)NC9=O)c(OC)c8)CC7)cc6C5)cc4F)CC2)n3C)c(=O)c1` (single isomer, unassigned) [Example 2g118] are 8.96 and 0.1 nM.
In turn, `CNc1ccn(-c2ccnc3c2cc([C@H](C)N2CC=C(c4c(C)cc(C(=O)N5CCC(CN6CCN(c7ccc(N[C@H]8CCC(=O)NC8=O)cc7F)C[C@@H]6C)CC5)cc4F)CC2)n3C)c(=O)c1` (single isomer, unassigned) [Example 2g98] gave a negative-log EC50 (pEC50) in experiment [1] of 7.78. Further, the DC50 at STAT6 stood at 6.9 nM.
For `CNc1cc(=O)n(-c2ccnc3c2cc([C@H](C)N2CC=C(c4c(F)cc(C(=O)N5CCn6nc(CN7CCC(c8ccc(NC9CCC(=O)NC9=O)cc8F)CC7)cc6C5)cc4F)CC2)n3C)cc1F` (stereo partly drawn) [Example 2g112, 3-((4-(1-((5-(3,5-difluoro-4-(1-((S)-1-(4-(5-fluoro-4-(methylamino)-2-oxopyridin-1(2H)-yl)-1-methyl-1H-pyr-rolo[2,3-b]pyridin-2-yl)ethyl)-1,2,3,6-tetrahydropyridin-4-yl)benzoyl)-4,5,6,7-tetra-hydropyrazolo[1,5-a]pyrazin-2-yl)methyl)piperidin-4-yl)-3-fluorophenyl)amino)piperi-dine-2,6-dione], in that order: 9.05 and 1.1 nM.
For `CNc1cc(=O)n(-c2ccnc3c2cc([C@H](C)N2CC=C(c4c(C)cc(C(=O)N5CCn6nc(CN7CCC(c8ccc(N[C@@H]9CCC(=O)NC9=O)c(OC)c8)CC7)cc6C5)cc4F)CC2)n3C)cc1F` (single isomer, unassigned) [Example 2g12], in that order: 9.30 and 0.7 nM.
The compound `C[C@@H](c1cc2c(-n3ccc4c(c3=O)CCN4)ccnc2n1C)N1CCC(c2ccc(C(=O)N3CCC(CN4CCN(c5ccc(N[C@@H]6CCC(=O)NC6=O)cc5F)CC4)CC3)cc2)CC1` (single isomer, unassigned) [Example 2c35] had a pEC50 in experiment [1] of 7.73. The DC50 at STAT6 was 7.5 nM.
On the same counts, the results for `CNc1ccn(-c2ccnc3c2cc([C@H](C)N2CC=C(c4c(C)cc(C(=O)N5CCn6nc(CC7(O)CCN(c8ccc(NC9CCC(=O)NC9=O)cc8F)CC7)cc6C5)cc4F)CC2)n3C)c(=O)c1` (stereo partly drawn) [Example 2g26, 3-((3-fluoro-4-(4-((5-(3-fluoro-5-methyl-4-(1-((S)-1-(1-methyl-4-(4-(methyl-amino)-2-oxopyridin-1(2H)-yl)-1H-pyrrolo[2,3-b]pyridin-2-yl)ethyl)-1,2,3,6-tetrahydro-pyridin-4-yl)benzoyl)-4,5,6,7-tetrahydropyrazolo[1,5-a]pyr-azin-2-yl)methyl)-4-hydroxy-piperidin-1-yl)phenyl)amino)-piperidine-2,6-dione] are 9.05 and 1.5 nM.
On to `CNc1cc(=O)n(-c2ccnc3c2cc([C@H](C)N2CCC(c4c(F)cc(C(=O)N5CCn6nc(CN7CCC(c8ccc(NC9CCC(=O)NC9=O)cc8F)CC7)cc6C5)cc4F)CC2)n3C)cc1F` (stereo partly drawn) [Example 2g111, 3-((4-(1-((5-(3,5-difluoro-4-(1-((S)-1-(4-(5-fluoro-4-(methylamino)-2-oxopyridin-1(2H)-yl)-1-methyl-1H-pyrrolo[2,3-b]pyridin-2-yl)-ethyl)piperidin-4-yl)benzoyl)-4,5,6,7-tetrahydropyrazolo [1,5-a]pyrazin-2-yl)methyl)-piperidin-4-yl)-3-fluorophen-yl)amino)piperidine-2,6-dione], for which, in experiment [1], the pEC50 was 9.22. Besides, on STAT6, the 50% degradation concentration (DC50) stood at 0.6 nM.
On the same counts, the results for `CNc1cc(=O)n(-c2ccnc3c2cc([C@H](C)N2CC=C(c4c(C)cc(C(=O)N5CCn6nc(CN7CCC(c8ccc(NC9CCC(=O)NC9=O)cc8F)CC7)cc6C5)cc4F)CC2)n3C)cc1F` (stereo partly drawn) [Example 2g4, 3-((3-fluoro-4-(1-((5-(3-fluoro-4-(1-((S)-1-(4-(5-fluoro-4-(methylamino)-2-oxopyridin-1(2H)-yl)-1-meth-yl-1H-pyrrolo[2,3-b]pyridin-2-yl)ethyl)-1,2,3,6-tetrahydro-pyridin-4-yl)-5-methylbenzo-yl)-4,5,6,7-tetrahydropyrazolo [1,5-a]pyrazin-2-yl)methyl)-piperidin-4-yl)phenyl)amino)-piperidine-2,6-dione] are 8.72 and 0.5 nM.
On the same counts, the results for `CNc1ccn(-c2ccnc3c2cc(CN2CCC(c4c(F)cc(C(=O)N5CCC(CN6CCN(c7ccc(N[C@H]8CCC(=O)NC8=O)cc7F)CC6)CC5)cc4F)CC2)n3C)c(=O)c1` (single isomer, unassigned) [Example 2g58] are 6.71 and 10.4 nM.
On the same counts, the results for `CNc1cc(=O)n(-c2ccnc3c2cc(CN2CCC(c4c(F)cc(C(=O)N5CCn6nc(CN7CCC(c8ccc(N[C@H]9CCC(=O)NC9=O)c(OC)c8)CC7)cc6C5)cc4F)CC2)n3C)cc1F` (single isomer, unassigned) [Example 2g123] are 8.59 and 1.8 nM.
Take `CNc1cc(=O)n(-c2ccnc3c2cc(CN2CCC(c4c(F)cc(C(=O)N5CCC(CN6CCN(c7ccc(NC8CCC(=O)NC8=O)cc7F)CC6)CC5)cc4F)CC2)n3C)cc1F` (centres unmarked) [Example 2g32, 3-((4-(4-((1-(3,5-difluoro-4-(1-((4-(5-fluoro-4-(methyl-amino)-2-oxopyridin-1(2H)-yl)-1-methyl-1H-pyrrolo[2,3-b]pyridin-2-yl)methyl)piperi-din-4-yl)benzoyl)piperidin-4-yl)methyl)piperazin-1-yl)-3-fluorophenyl)amino)piperi-dine-2,6-dione]: in experiment [1], the pEC50 is 7.24. The DC50 on STAT6 was 10.6 nM.
In experiment [1], `CNc1cc(=O)n(-c2ccnc3c2cc(CN2CC=C(c4c(F)cc(C(=O)N5CCC(CN6CCN(c7ccc(NC8CCC(=O)NC8=O)cc7F)CC6)CC5)cc4F)CC2)n3C)cc1F` (centres unmarked) [Example 2g65, 3-((4-(4-((1-(3,5-difluoro-4-(1-((4-(5-fluoro-4-(methyl-amino)-2-oxopyridin-1(2H)-yl)-1-methyl-1H-pyrrolo[2,3-b]pyridin-2-yl)methyl)-1,2,3,6-tetrahydropyridin-4-yl)benzoyl)piperidin-4-yl)-methyl)piperazin-1-yl)-3-fluorophenyl)amino)piperi-dine-2,6-dione] had a pEC50 of 6.39. Moreover, the DC50 on STAT6 amounted to 120 nM.
The compound `CNc1ccn(-c2ccnc3c2cc([C@H](C)N2CC=C(c4c(C)cc(C(=O)N5CCC(CN6CCN(c7ccc(N[C@@H]8CCC(=O)NC8=O)c(OC)c7)CC6)CC5)cc4F)CC2)n3C)c(=O)c1` (single isomer, unassigned) [Example 2g127] gave a pEC50 in experiment [1] of 8.03. Further, at STAT6, the DC50 came to 20.8 nM.

Source of the values: patent US20250320205A1, “STAT6 DEGRADERS” (Gilead Sciences, Inc., priority 2024, published 2025).
